Earlier results as cited in PMC8305651 (International Journal of Molecular Sciences, 2021).

Conditions: cited from earlier work

Compound: O=c1cc(-c2ccc(O)c(O)c2)oc2cc(O)cc(O)c12 [luteolin]
- bioavailability: low bioavailability
